Laboratory results taken from patent US10519105B2, “KCNQ2-5 channel activator” (ONO PHARMACEUTICAL CO., LTD., priority 2016, dated 2019).
In brackets after ≈: the same amount, converted by molar mass.

Assays:
Human KCNQ2/3 channel = biological target: T1, Human KCNQ2/3 channel (Homo sapiens, UniProt O43525+O43526); test: Opening action with respect to KCNQ2/3 channel by depolarization stimulation (thallium influx, FLIPR); format: cell-based; details: concentration giving 50% of the maximum reaction of retigabine (10 μM); human KCNQ2/3 expressing CHO-DHFR- cells; read-out: KCNQ2/3 ECrtg50
T1 construct: expressed in transfected cells; host or cells: CHO-DHFR- cells
Protocol: Human KCNQ2/3 expression cells (CHO-DHFR− cells) were seeded in each well of a 384-well plate (collagen-coated, black, clear bottom) at 0.5×10^4 cells/50 μL per well and cultured using a MEM ALPHA medium (containing 10 vol % inactivated (56° C., 30 min) fetal bovine serum, 100 IU/mL penicillin, 100 μg/mL streptomycin, and 2 mM L-glutamine) at 37° C. in 5% CO2 for 18 to 24 hours. After the medium in the plate was removed, incubation (room temperature, 60 minutes, shading) was performed in a loading buffer (prepared by the method described in the manual of FluxOR Thallium Detection Kit (Invitrogen, F10016, F10017)). A KCNQ2/3 channel opening action (thallium influx into cells) by depolarization stimulation (5 mM potassium and 0.5 mM thallium) was measured by FLIPR TETRA (Molecular Devices). The compound of the present invention was treated 5 minutes before the depolarization stimulation, and the reaction induced by the depolarization stimulation was measured over time for 180 seconds. The channel opening action of the compound of the present invention was evaluated based on the change amount of the fluorescence intensity from the time before the depolarization stimulation to the time after the elapse of 180 seconds, and the concentration (ECrtg50) satisfying 50% of the fluorescence intensity change of a maximum reaction (in the treatment at 10 μM) of retigabine under the conditions of this experiment was calculated.

[1] = Solubility test (DMSO precipitation method, Japanese Pharmacopoeia dissolution test second solution); format: physicochemical; details: aqueous buffer, kinetic from dmso stock, JP dissolution test second solution pH 6.8, room temperature, quantification range 5 to 100 μM
Protocol: A calibration curve solution was prepared at 0.1, 0.4, and 2 μM by diluting a test substance (a 10 mM DMSO solution) with acetonitrile and adding acetonitrile containing an internal standard substance (candesartan).
A sample solution was prepared as follows. 5 μL of the compound of the present invention (a 10 mM DMSO solution) was added to 495 μL of the Japanese Pharmacopoeia dissolution test second solution (pH: 6.8), followed by stirring at room temperature for 5 hours. Then, the solution was transferred to a solubility filter plate and subjected to suction filtration. The filtrate (20 μL) was diluted with acetonitrile, followed by adding acetonitrile containing an internal standard substance (candesartan).
Each of the calibration curve and sample solutions (5 μL) was injected into LC-MS/MS (Discovery Max, manufactured by Thermo Scientific, Inc.) and subjected to quantification (quantification range: 5 to 100 μM). The solubility in the case where the value equal to or less than the quantification range was obtained was defined as <5 μM, and the solubility in the case where the value equal to or more than the quantification range was obtained was defined as […].

[2] = Stability in human liver microsomes; format: in vitro ADME; details: human liver microsomes 0.5 mg/mL, NADPH, 5 μM, 37° C., 15 minutes
Protocol: A test compound (a 10 mM DMSO solution, 5 μL) was diluted with a 50% aqueous acetonitrile solution (195 μL), whereby a 0.25 mM solution was prepared.
To a reaction vessel preheated to 37° C., 0.5 mg/mL of human liver microsomes (XenoTech, LLC) and 245 JLL of a 0.1 M phosphate buffer solution (pH 7.4) containing NADPH co-factor (BD Biosciences) were added, followed by preincubation for 5 minutes, and thereafter, the above-prepared test compound solution (5 μL) was added thereto to start a reaction (final concentration: 5 μM). Immediately after the start, a 20 μL portion was collected and added to 180 μL of acetonitrile containing an internal standard substance (warfarin) to stop the reaction. A 20 μL portion of this solution was stirred with 180 μL of a 50% aqueous acetonitrile solution on a plate equipped with a deproteinization filter, followed by suction filtration, and the filtrate was used as a standard sample.
After the above-prepared reaction solution was incubated at 37° C. for 15 minutes, a 20 μL portion of the solution was added to 180 μL of cooled acetonitrile (containing warfarin serving as an internal standard substance) to stop the reaction. A 20 μL portion of this solution was stirred with 180 μL of a 50% aqueous acetonitrile solution on a plate equipped with a deproteinization filter, followed by suction filtration, and the filtrate was used as a reaction sample.
A residual ratio (%) was calculated as follows. 1 μL of the sample solution was injected into LC-MS/MS (Discovery Max, manufactured by Thermo Scientific, Inc.), and a value obtained by dividing the peak area ratio of the reaction sample (peak area of test compound/peak area of internal standard substance) by the peak area ratio of the standard sample was multiplied by 100.

| EC50 (Human KCNQ2/3 channel) [µM] | solubility at 5 h [1] [µM] | Residual ratio [2] [%] | Structure (SMILES) |
| --- | --- | --- | --- |
| 0.5 | 86 (≈ 34.2 µg/mL) |  | CC1(O)CCc2c1cc(Cl)c(NC(=O)NCCc1ccc(F)cc1)c2Cl (stereo not drawn) [Example 3(7), 1-(4,6-dichloro-1-hydroxy-1-methyl-2,3-dihydro-1H-inden-5-yl)-3-[2-(4-fluorophenyl)ethyl]urea] |
| 0.04 |  |  | CC1(O)CCc2c1cc(Cl)c(NC(=O)NCc1cccc(C(F)(F)F)c1)c2Cl (stereo not drawn) [Example 3(9), 1-(4,6-dichloro-1-hydroxy-1-methyl-2,3-dihydro-1H-inden-5-yl)-3-[3-(trifluoromethyl)benzyl]urea] |
| 0.3 |  |  | CC1(O)CCc2c1cc(Cl)c(NC(=O)NC(C)(C)c1ccc(F)cc1)c2Cl (stereo not drawn) [Example 3(10), 1-(4,6-dichloro-1-hydroxy-1-methyl-2,3-dihydro-1H-inden-5-yl)-3-[2-(4-fluorophenyl)-2-propanyl]urea] |
| 0.02 | 92 (≈ 34.2 µg/mL) |  | CC1(O)CCc2c1cc(Cl)c(NC(=O)NCCC1CCCC1)c2Cl (stereo not drawn) [Example 3(13), 1-(2-cyclopentylethyl)-3-(4,6-dichloro-1-hydroxy-1-methyl-2,3-dihydro-1H-inden-5-yl)urea] |
| 0.03 |  |  | CC1(O)CCc2c1cc(Cl)c(NC(=O)NCc1ccc(OC(F)(F)F)cc1F)c2Cl (stereo not drawn) [Example 3(16), 1-(4,6-dichloro-1-hydroxy-1-methyl-2,3-dihydro-1H-inden-5-yl)-3-[2-fluoro-4-(trifluoromethoxy)benzyl]urea] |
| 0.05 | 76 (≈ 29.2 µg/mL) | 83 | CC1(O)CCc2c1cc(Cl)c(NC(=O)OCc1ccc(F)cc1)c2Cl (stereo not drawn) [Example 3(19), 4-fluorobenzyl(4,6-dichloro-1-hydroxy-1-methyl-2,3-dihydro-1H-inden-5-yl)carbamate] |
| 0.6 | 83 (≈ 34.3 µg/mL) |  | CC1(O)CCc2c1cc(Cl)c(NC(=O)NCCOc1ccc(F)cc1)c2Cl (stereo not drawn) [Example 3(23), 1-(4,6-dichloro-1-hydroxy-1-methyl-2,3-dihydro-1H-inden-5-yl)-3-[2-(4-fluorophenoxy)ethyl]urea] |
| 0.4 |  |  | CC1(O)CCc2c1cc(Cl)c(NC(=O)NCCOC1CCCCC1)c2Cl (stereo not drawn) [Example 3(24), 1-[2-(cyclohexyloxy)ethyl]-3-(4,6-dichloro-1-hydroxy-1-methyl-2,3-dihydro-1H-inden-5-yl)urea] |
| 0.01 |  |  | CC1(O)CCc2c1cc(Cl)c(NC(=O)NCC1CC3CCC1C3)c2Cl (stereo not drawn) [Example 3(25), 1-(bicyclo[2.2.1]hept-2-ylmethyl)-3-(4,6-dichloro-1-hydroxy-1-methyl-2,3-dihydro-1H-inden-5-yl)urea] |
| 0.2 | 85 (≈ 37.5 µg/mL) |  | CC1(CNC(=O)Nc2c(Cl)cc3c(c2Cl)CCC3(O)C(F)(F)F)CCOCC1 (stereo not drawn) [Example 12(2), 1-[4,6-dichloro-1-hydroxy-1-(trifluoromethyl)-2,3-dihydro-1H-inden-5-yl]-3-[(4-methyltetrahydro-2H-pyran-4-yl)methyl]urea] |
| 0.2 | 94 (≈ 39.9 µg/mL) | 100 | Cc1cc(CNC(=O)Nc2c(Cl)cc3c(c2Cl)CCC3(O)C(F)(F)F)no1 (stereo not drawn) [Example 12(8), 1-[4,6-dichloro-1-hydroxy-1-(trifluoromethyl)-2,3-dihydro-1H-inden-5-yl]-3-[(5-methyl-1,2-oxazole-3-yl)methyl]urea] |
| 0.05 |  |  | O=C(NCc1cccc(N2CCCCC2)n1)Nc1c(Cl)cc2c(c1Cl)CCC2(O)C(F)(F)F (stereo not drawn) [Example 12(9), 1-[4,6-dichloro-1-hydroxy-1-(trifluoromethyl)-2,3-dihydro-1H-inden-5-yl]-3-{[6-(1-piperidinyl)-2 pyridinyl]methyl}urea] |
| 0.06 | 78 (≈ 29.9 µg/mL) | 100 | O=C(NCC1CC1)Nc1c(Cl)cc2c(c1Cl)CCC2(O)C(F)(F)F (stereo not drawn) [Example 12(13), 1-(cyclopropylmethyl)-3-[4,6-dichloro-1-hydroxy-1-(trifluoromethyl)-2,3-dihydro-1H-inden-5-yl]urea] |
| 0.01 |  |  | O=C(NCc1ccc(-c2ccc(Cl)cc2)o1)Nc1c(Cl)cc2c(c1Cl)CCC2(O)C(F)(F)F (stereo not drawn) [Example 12(16), 1-{[5-(4-chlorophenyl)-2-furyl]methyl}-3-[4,6-dichloro-1-hydroxy-1-(trifluoromethyl)-2,3-dihydro-1H-inden-5-yl]urea] |
| 0.02 |  |  | CC1(CNC(=O)Nc2c(Cl)cc3c(c2Cl)CCC3(O)C(F)(F)F)CC1 (stereo not drawn) [Example 12(17), 1-[4,6-dichloro-1-hydroxy-1-(trifluoromethyl)-2,3-dihydro-1H-inden-5-yl]-3-[(1-methylcyclopropyl)methyl]urea] |
| 0.02 |  |  | O=C(NCc1cc2ccccc2[nH]1)Nc1c(Cl)cc2c(c1Cl)CCC2(O)C(F)(F)F (stereo not drawn) [Example 12(21), 1-[4,6-dichloro-1-hydroxy-1-(trifluoromethyl)-2,3-dihydro-1H-inden-5-yl]-3-(1H-indol-2-ylmethyl)urea] |
| 0.005 | 72 (≈ 32.5 µg/mL) | 95 | C[C@@H](NC(=O)Nc1c(Cl)cc2c(c1Cl)CC[C@]2(O)C(F)(F)F)c1ccc(F)cc1 [Example 21, 1-[(1R)-4,6-dichloro-1-hydroxy-1-(trifluoromethyl)-2,3-dihydro-1H-inden-5-yl]-3-[(1R)-1-(4-fluorophenyl)ethyl]urea] |
| 0.001 |  |  | C[C@@H](NC(=O)Nc1c(Cl)cc2c(c1Cl)CC[C@@]2(O)C(F)(F)F)c1ccc(F)cc1 [Example 22, 1-[(1S)-4,6-dichloro-1-hydroxy-1-(trifluoromethyl)-2,3-dihydro-1H-inden-5-yl]-3-[(1R)-1-(4-fluorophenyl)ethyl]urea] |
| 0.3 | 80 (≈ 37 µg/mL) | 81 | CC1(C)CC(C)(O)c2cc(Cl)c(NC(=O)NCc3ccc(C(F)(F)F)cn3)c(Cl)c21 (stereo not drawn) [Example 35, 1-(4,6-dichloro-1-hydroxy-1,3,3-trimethyl-2,3-dihydro-1H-inden-5-yl)-3-{[5-(trifluoromethyl)-2 pyridinyl]methyl}urea] |
